Measured values: US20160120863A1, “SLC2A TRANSPORTER INHIBITORS” (IOMET PHARMA LTD., priority 2013, published 2016)

Target: T1, human GLUT1 (Homo sapiens, UniProt P11166)
T1 construct: expressed in transfected cells
T1 sequence (P11166 1-492): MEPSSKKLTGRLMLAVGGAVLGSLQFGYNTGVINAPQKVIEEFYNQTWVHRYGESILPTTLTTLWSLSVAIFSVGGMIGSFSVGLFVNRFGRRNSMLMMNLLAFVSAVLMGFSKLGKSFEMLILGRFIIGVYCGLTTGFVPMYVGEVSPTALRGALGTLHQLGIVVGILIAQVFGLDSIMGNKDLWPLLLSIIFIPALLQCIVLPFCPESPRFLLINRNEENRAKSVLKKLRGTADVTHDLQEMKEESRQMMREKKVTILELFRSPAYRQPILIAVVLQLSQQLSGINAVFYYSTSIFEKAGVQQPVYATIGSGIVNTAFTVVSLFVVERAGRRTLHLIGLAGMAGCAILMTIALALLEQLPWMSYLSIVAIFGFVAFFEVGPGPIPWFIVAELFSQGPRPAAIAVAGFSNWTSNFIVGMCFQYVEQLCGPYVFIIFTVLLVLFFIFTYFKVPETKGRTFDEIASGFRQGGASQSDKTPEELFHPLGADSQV
Test: [3H]-deoxy-D-glucose uptake assay, GLUT1
Format: cell-based
Details: [3H]-deoxy-D-glucose uptake in HEK293 cells stably expressing human GLUT1
How it was run: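 HEK293 cells stably overexpressing human GLUT1 or GLUT2, seeded at 60,000 per well, treated with compounds in glucose-free uptake buffer for 30 min at 37 °C. [3H]-deoxy-D-glucose uptake quantified by scintillation counting after ice-cold PBS washes; IC50 determined.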

Structure (SMILES)	GLUT1 pIC50
C=C(C)c1cn2c(CN3CCOCC3)c(-c3ccc(Cl)cc3)nc2cn1 [Compound 216]	+++ (pIC50 ≧ 6.00)
COCC(=O)N1CCN(Cc2c(-c3ccc(Cl)cc3)nc3ccc(-c4ccccc4C#N)cn23)CC1 [Compound 218]	+++ (pIC50 ≧ 6.00)
CCC(=O)N1CCN(Cc2c(-c3ccc(Cl)cc3)nc3ccc(-c4ccccc4C#N)cn23)CC1 [Compound 219]	+++ (pIC50 ≧ 6.00)
N#Cc1ccccc1-c1ccc2nc(-c3ccc(Cl)cc3)c(CN3CCN(C(=O)c4ccncc4)CC3)n2c1 [Compound 220]	+++ (pIC50 ≧ 6.00)
N#Cc1ccccc1-c1ccc2nc(-c3ccc(Cl)cc3)c(CN3CCN(C(=O)c4cnccn4)CC3)n2c1 [Compound 221]	+++ (pIC50 ≧ 6.00)
O=C(O)CN1CCN(Cc2c(-c3ccc(Cl)cc3)nc3ccc(-c4ccccc4)cn23)CC1 [Compound 223]	+− (pIC50 < 4.00)
COCC(=O)N1CCN(Cc2c(-c3ccc(Cl)cc3)nc3ccc(-c4c(F)cccc4F)cn23)CC1 [Compound 225]	+++ (pIC50 ≧ 6.00)
CC(=O)N1CCN(Cc2c(-c3ccc(Cl)cc3)nc3ccc(-c4c(F)cccc4F)cn23)CC1 [Compound 226]	+++ (pIC50 ≧ 6.00)
CN(CC(=O)N(C)C)Cc1c(-c2ccc(Cl)cc2)nc2ccc(-c3ccccc3)cn12 [Compound 228]	+− (pIC50 < 4.00)
O=C(c1cocn1)N1CCN(Cc2c(-c3ccc(Cl)cc3)nc3ccc(-c4ccccc4)cn23)CC1 [Compound 229]	+++ (pIC50 ≧ 6.00)
O=C(c1ccc(=O)[nH]c1)N1CCN(Cc2c(-c3ccc(Cl)cc3)nc3ccc(-c4ccccc4)cn23)CC1 [Compound 230]	+++ (pIC50 ≧ 6.00)
CC(=O)N1CCCN(Cc2c(-c3ccc(Cl)cc3)nc3ccc(-c4ccccc4)cn23)CC1 [Compound 231]	+++ (pIC50 ≧ 6.00)
O=C(c1cnco1)N1CCN(Cc2c(-c3ccc(Cl)cc3)nc3ccc(-c4ccccc4)cn23)CC1 [Compound 233]	+++ (pIC50 ≧ 6.00)
O=C(c1ccncc1)N1CCN(Cc2c(-c3ccc(Cl)cc3)nc3ccc(-c4c(F)cccc4F)cn23)CC1 [Compound 235]	+++ (pIC50 ≧ 6.00)
Clc1ccc(-c2nc3ccc(C4CCOCC4)cn3c2CN2CCOCC2)cc1 [Compound 237]	++ (pIC50 5.00-5.99)
N#Cc1ccccc1-c1ccc2nc(-c3ccc(Cl)cc3)c(CN3CCNC(=O)C3)n2c1 [Compound 239]	+++ (pIC50 ≧ 6.00)
Clc1ccc(-c2nc3ccc(C4CCCC4)cn3c2CN2CCOCC2)cc1 [Compound 240]	++ (pIC50 5.00-5.99)
Clc1ccc(-c2nc3ccc(-c4ncccn4)cn3c2CN2CCOCC2)cc1 [Compound 241]	++ (pIC50 5.00-5.99)
Cn1cc(C(=O)N2CCN(Cc3c(-c4ccc(Cl)cc4)nc4ccc(-c5ccccc5)cn34)CC2)cn1 [Compound 243]	+++ (pIC50 ≧ 6.00)
O=C(c1cc[nH]c(=O)c1)N1CCN(Cc2c(-c3ccc(Cl)cc3)nc3ccc(-c4ccccc4)cn23)CC1 [Compound 244]	+++ (pIC50 ≧ 6.00)
OC(c1c(-c2ccc(Cl)cc2)nc2ccc(-c3ccccc3)cn12)C1CCCN1 (stereo not drawn) [Compound 245]	+− (pIC50 < 4.00)
Cn1ccnc1C(=O)N1CCN(Cc2c(-c3ccc(Cl)cc3)nc3ccc(-c4ccccc4)cn23)CC1 [Compound 246]	++ (pIC50 5.00-5.99)
CN1CCN(Cc2c(-c3ccc(Cl)cc3)nc3ccc(-c4ccccc4)cn23)CC1=O [Compound 248]	++ (pIC50 5.00-5.99)
Fc1cc(Cl)ccc1-c1nc2ccc(-c3ccccc3)cn2c1CN1CCOCC1 [Compound 249]	++ (pIC50 5.00-5.99)
O=C(c1cn[nH]c1)N1CCN(Cc2c(-c3ccc(Cl)cc3)nc3ccc(-c4ccccc4)cn23)CC1 [Compound 250]	+++ (pIC50 ≧ 6.00)
Fc1cccnc1-c1ccc2nc(-c3ccc(Cl)cc3)c(CN3CCOCC3)n2c1 [Compound 251]	++ (pIC50 5.00-5.99)

Structure (SMILES)	GLUT1 pIC50
O=C(c1cnccn1)N1CCN(Cc2c(-c3ccc(Cl)cc3)nc3cnc(C4CC4)cn23)CC1 [Compound 255]	+++ (pIC50 ≧ 6.00)
O=C(C1CCOCC1)N1CCN(Cc2c(-c3ccc(Cl)cc3)nc3cnc(C4CC4)cn23)CC1 [Compound 256]	+++ (pIC50 ≧ 6.00)
COCC(=O)N1CCN(Cc2c(-c3ccc(Cl)cc3)nc3ccc(NS(C)(=O)=O)cn23)CC1 [Compound 260]	+++ (pIC50 ≧ 6.00)
O=C(c1cnccn1)N1CCN(Cc2c(-c3ccc(Cl)cc3)nc3ccc(C4CC4)cn23)CC1 [Compound 263]	+++ (pIC50 ≧ 6.00)
O=C(c1nccs1)N1CCN(Cc2c(-c3ccc(Cl)cc3)nc3ccc(-c4ccccc4)cn23)CC1 [Compound 266]	+++ (pIC50 ≧ 6.00)
O=C(c1cscn1)N1CCN(Cc2c(-c3ccc(Cl)cc3)nc3cnc(C4CC4)cn23)CC1 [Compound 267]	+++ (pIC50 ≧ 6.00)
O=C(c1ccnnc1)N1CCN(Cc2c(-c3ccc(Cl)cc3)nc3cnc(C4CC4)cn23)CC1 [Compound 268]	+++ (pIC50 ≧ 6.00)
CC(=O)N1CCN(Cc2c(-c3ccc(Cl)cc3)nc3ccc(-c4ncon4)cn23)CC1 [Compound 270]	+++ (pIC50 ≧ 6.00)
O=C(C1COC1)N1CCN(Cc2c(-c3ccc(Cl)cc3)nc3cnc(C4CC4)cn23)CC1 [Compound 274]	+++ (pIC50 ≧ 6.00)
COCC(=O)N1CCN(Cc2c(-c3ccc(Cl)cc3)nc3ccc([N+](=O)[O-])cn23)CC1 [Compound 275]	++ (pIC50 5.00-5.99)
CC(=O)N1CCN(Cc2c(-c3ccc(Cl)cc3)nc3ccc(N)cn23)CC1 [Compound 276]	+− (pIC50 < 4.00)
O=C(CO)N1CCN(Cc2c(-c3ccc(Cl)cc3)nc3ccc(-c4ccccc4)cn23)CC1 [Compound 277]	+++ (pIC50 ≧ 6.00)
CS(=O)(=O)Nc1ccc2nc(-c3ccc(Cl)cc3)c(CN3CCN(C(=O)c4cscn4)CC3)n2c1 [Compound 279]	+++ (pIC50 ≧ 6.00)
COCC(=O)N1CCN(Cc2c(-c3ccc(Cl)cc3)nc3ccc(N)cn23)CC1 [Compound 280]	+− (pIC50 < 4.00)
O=C(c1ccncc1)N1CCN(Cc2c(-c3ccc(Cl)cc3)nc3ccc(-c4ncon4)cn23)CC1 [Compound 281]	+++ (pIC50 ≧ 6.00)
O=C(c1c(-c2ccc(Cl)cc2)nc2ccc(-c3ccccc3)cn12)N1CCOCC1 [Compound 282]	+− (pIC50 < 4.00)
CN1CCN(C(=O)c2c(-c3ccc(Cl)cc3)nc3ccc(-c4ccccc4)cn23)CC1 [Compound 283]	+− (pIC50 < 4.00)
COCC(=O)N1CCN(Cc2c(-c3ccc(Cl)cc3)nc3ccc(-c4ncon4)cn23)CC1 [Compound 284]	+++ (pIC50 ≧ 6.00)
O=C(C1COC1)N1CCN(Cc2c(-c3ccc(Cl)cc3)nc3ccc(-c4ncon4)cn23)CC1 [Compound 285]	+++ (pIC50 ≧ 6.00)
CS(=O)(=O)Nc1ccc2nc(-c3ccc(Cl)cc3)c(CN3CCN(C(=O)C4COC4)CC3)n2c1 [Compound 286]	+++ (pIC50 ≧ 6.00)
Clc1ccc(-c2nc3ccc(-c4nccs4)cn3c2CN2CCOCC2)cc1 [Compound 287]	+++ (pIC50 ≧ 6.00)
O=C1CN(Cc2c(-c3ccc(Cl)cc3)nc3cnc(C4CC4)cn23)CCN1 [Compound 288]	+++ (pIC50 ≧ 6.00)
CS(=O)(=O)Nc1ccc2nc(-c3ccc(Cl)cc3)c(CN3CCNC(=O)C3)n2c1 [Compound 289]	+++ (pIC50 ≧ 6.00)
CC(C)(C)OC(=O)N1CCN(C(=O)c2c(-c3ccc(Cl)cc3)nc3ccc(-c4ccccc4)cn23)CC1 [Compound 290]	+− (pIC50 < 4.00)
O=C(c1c(-c2ccc(Cl)cc2)nc2ccc(-c3ccccc3)cn12)N1CCNCC1 [Compound 291]	+− (pIC50 < 4.00)
